Test results published in patent US20130252930A1 (BIOMARIN PHARMACEUTICAL INC., priority 2010, published 2013).
Like-named read-outs stand apart in the source and are kept apart here.

Experiments:
[1] = molecular target: T1, CYP17 (human testicular microsome) (Homo sapiens, UniProt P05093); assay: CYP17 enzymatic assay (IC50) (Biological Example 4); assay type: biochemical; conditions: human testicular microsome
T1 construct: using microsomal fraction from human testis (Celsis Cat #S00110) as the enzyme source; tissue Celsis S00110; host or cells: human testis microsomal fraction
T1 sequence (P05093 1-508): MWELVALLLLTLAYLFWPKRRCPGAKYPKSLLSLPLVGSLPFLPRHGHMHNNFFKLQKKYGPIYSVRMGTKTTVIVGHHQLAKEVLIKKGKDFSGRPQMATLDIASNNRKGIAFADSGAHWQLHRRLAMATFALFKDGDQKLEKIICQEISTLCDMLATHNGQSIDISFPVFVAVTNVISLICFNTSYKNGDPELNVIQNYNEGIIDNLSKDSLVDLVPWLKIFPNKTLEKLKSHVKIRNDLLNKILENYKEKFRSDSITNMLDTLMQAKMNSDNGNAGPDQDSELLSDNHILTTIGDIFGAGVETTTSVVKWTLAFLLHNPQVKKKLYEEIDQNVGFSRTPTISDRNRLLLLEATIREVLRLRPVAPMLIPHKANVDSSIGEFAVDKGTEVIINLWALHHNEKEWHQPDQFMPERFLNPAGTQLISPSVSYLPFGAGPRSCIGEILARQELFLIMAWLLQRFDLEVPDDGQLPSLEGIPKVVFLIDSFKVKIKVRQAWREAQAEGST

[2] = Human liver microsome stability assay (Biological Example 8b); conditions: liver microsomes, pH 7.4
Procedure: The reaction was started with addition of excess NADPH (5 mg/mL, 15 μL in 0.1 M potassium phosphate buffer, 1.0 mM EDTA, pH 7.4), the total volume is 45 μL (compound final concentration was 1 μM). […] 50 μL of the supernatant was transferred from each well into a 96-well sample plate containing 50 μL of ultra-pure water (Millipore) for LC-MS/MS analysis.

[3] = molecular target: T1, CYP17 (human testicular microsome); assay: CYP17 enzymatic assay (% inhibition at 1 nM) (Biological Example 12); assay type: biochemical; conditions: compound at 1 nM
[4] = molecular target: T2, CYP17 (H295R cells) (Homo sapiens, UniProt P05093); assay: CYP17 cellular assay (IC50), testosterone in H295R cells (Biological Example 7); assay type: cell-based; conditions: H295R cells
T2 construct: endogenous in cells; host or cells: H295R cells
T2 sequence (P05093 1-508): T1 sequence (P05093 1-508)
Procedure: The assays were performed in 96-well plates. Typically H295R cells were seeded at 4.5×10^4 cells/well in 100 μL Growth Medium containing DMEM/F-12 (Gibco/Invitrogen; 11330-032), 2.5% Nu-Serum (BD Bioscience; 355100) and ITS (BD Bioscience; 354352), and cultured at 37° C., 5% CO2 for 24 hr. The next day, media were carefully removed and cells were washed twice with 200 μL 1×HBSS++. Test compounds were then added to the cells at 100, 10, 1, 0.1 nM final concentrations in 125 μL volume per well in serum-free media containing DMEM/F-12 and ITS+ Premix (BD Bioscience; 354352) with 0.1% methanol. Serum-free media with 0.1% methanol without test compound was used as control. Cells were incubated with compounds at 37° C. for additional 24 hours, and the cultured media from each compound treated well was harvested for measurement of testosterone concentration by ELISA according to manufacturer's instruction (Assay Design). Testosterone concentration of each sample was plotted vs. the concentration of the test compounds.

[5] = molecular target: T1, CYP17 (human testicular microsome); assay: CYP17 enzymatic assay (% inhibition at 10 nM), version 1 (Biological Example 5); assay type: biochemical; conditions: 10 nM compound, DHEA by ELISA, read-out: Biological Example No. 5: CYP17 percent inhibition at 10 nM (version 1)
[6] = read-out: Biological Example No. 4: CYP17 enzymatic assay IC50
[7] = read-out: Biological Example No. 12: CYP17 enzymatic assay % inhibition at 1 nM
[8] = testosterone, read-out: Biological Example No. 7: CYP17 cellular assay IC50
[9] = read-out: CYP17 enzymatic assay % inhibition at 1 nM (Biological Example No. 12)
[10] = testosterone, read-out: CYP17 cellular assay IC50 (Biological Example No. 7)

Row | SMILES | IC50 [1, 6] [nM] | half-life at 1 μM [2] [min] | inhibition at 0.001 µM [3, 7] [%] | IC50 [4, 8] [nM] | inhibition at 0.001 µM [3, 9] [%] | IC50 [4, 10] [nM] | IC50 ([1]; DHEA by ELISA, read-out: Biological Example No. 4: CYP17 enzymatic assay IC50) [nM] | IC50 ([4]; testosterone by ELISA, 24 hours, read-out: Biological Example No. 7: CYP17 cellular assay IC50) [nM] | inhibition at 0.01 µM [5] [%] | IC50 ([1]; read-out: CYP17 enzymatic assay IC50 (Biological Example No. 4)) [nM]
1 | C[C@]12CC[C@H]3[C@@H](CC4CC45C[C@@H](O)CC[C@]35C)[C@@H]1CC=C2c1cccnc1 (single isomer, unassigned) [Compound 317] | < 11 | 1 to 50 | > 50 | < 15 | – | – | – | – | – | –
2 | CC(=O)N[C@@H]1CC[C@@]2(C)C(CCC3C2CC[C@]2(C)C(c4cnccc4C)=CCC32)C1 (stereo partly drawn) [Compound 21, N-((3R,10S,13S)-10,13-dimethyl-17-(4-methylpyridin-3-yl)-2,3,4,5,6,7,8,9,10,11,12,13,14,15-tetradecahydro-1H-cyclopenta[a]phenanthren-3-yl)acetamide] | – | 1 to 50 | – | – | > 50 | < 15 | – | – | – | –
3 | CC(=O)O[C@H]1CC[C@@]2(C)[C@@H](CC[C@@H]3[C@@H]2CC[C@]2(C)C(n4ccnn4)=CC[C@@H]32)C1 [Compound 130, (3S,5S,8R,9S,10S,13S,14S)-10,13-dimethyl-17-(1H-1,2,3-triazol-1-yl)-2,3,4,5,6,7,8,9,10,11,12,13,14,15-tetradecahydro-1H-cyclopenta[a]phenanthren-3-yl acetate] | – | – | – | – | – | – | < 11 | < 15 | > 80 | –
4 | Cc1ccncc1C1=CC=C2[C@@H]3CC=C4C[C@@H](O)CC[C@]4(C)[C@H]3CC[C@]12C [Compound 190, (3S,10R,13S)-10,13-dimethyl-17-(4-methylpyridin-3-yl)-2,3,4,7,8,9,10,11,12,13-decahydro-1H-cyclopenta[a]phenanthren-3-ol] | – | 1 to 50 | – | – | > 50 | 15 to 100 | – | – | – | –
5 | CC(C)C(=O)N[C@@H]1CC[C@@]2(C)C(CCC3C2CC[C@]2(C)C(c4cccnc4)=CCC32)C1 (stereo partly drawn) [Compound 216, N-((3R,10S,13S)-10,13-dimethyl-17-(pyridin-3-yl)-2,3,4,5,6,7,8,9,10,11,12,13,14,15-tetradecahydro-1H-cyclopenta[a]phenanthren-3-yl)isobutyramide] | – | 1 to 50 | – | – | > 50 | < 15 | – | – | – | –
6 | CC(=O)N[C@@H]1CC[C@@]2(C)C(=CCC3C2CC[C@]2(C)C(c4cccnc4)=CCC32)C1 (stereo partly drawn) [Compound 223, N-((3R,10R,13S)-10,13-dimethyl-17-(pyridin-3-yl)-2,3,4,7,8,9,10,11,12,13,14,15-dodecahydro-1H-cyclopenta[a]phenanthren-3-yl)acetamide] | – | 1 to 50 | – | – | > 50 | < 15 | – | – | – | < 11
7 | CC(=O)N[C@@H]1CC[C@@]2(C)C(=CCC3C4=CC=C(c5cccnc5)[C@@]4(C)CCC32)C1 (stereo partly drawn) [Compound 243, N-((3R,10R,13S)-10,13-dimethyl-17-(pyridin-3-yl)-2,3,4,7,8,9,10,11,12,13-decahydro-1H-cyclopenta[a]phenanthren-3-yl)acetamide] | – | 1 to 50 | – | – | > 50 | < 15 | – | – | – | –
8 | C[C@]1(O)CC[C@@]2(C)C(CCC3C2CC[C@]2(C)C(c4cncc(F)c4)=CCC32)C1 (stereo partly drawn) [Compound 264, (3S,10S,13S)-17-(5-fluoropyridin-3-yl)-3,10,13-trimethyl-2,3,4,5,6,7,8,9,10,11,12,13,14,15-tetradecahydro-1H-cyclopenta[a]phenanthren-3-ol] | < 11 | 1 to 50 | – | < 15 | – | – | – | – | – | –
9 | C[C@]12CC[C@H]3[C@@H](CC=C4C[C@@H](O)CC[C@@]43C)C1=CC=C2c1cncc(F)c1 [Compound 271, (3S,10R,13S)-17-(5-fluoropyridin-3-yl)-10,13-dimethyl-2,3,4,7,8,9,10,11,12,13-decahydro-1H-cyclopenta[a]phenanthren-3-ol] | < 11 | 1 to 50 | > 50 | < 15 | – | – | – | – | – | –
10 | C[C@]12CC[C@H](O)CC1=CCC1C2CC[C@]2(C)C(c3cncc(C(F)F)c3)=CCC12 (stereo partly drawn) [Compound 279, (3S,10R,13S)-17-(5-(difluoromethyl)pyridin-3-yl)-10,13-dimethyl-2,3,4,7,8,9,10,11,12,13,14,15-dodecahydro-1H-cyclopenta[a]phenanthren-3-ol] | < 11 | > 50 | > 50 | < 15 | – | – | – | – | – | –
11 | C[C@]12CCC3C(CC(F)C4(O)C[C@@H](O)CC[C@]34C)C1CC=C2c1cncc(F)c1 (stereo partly drawn) [Compound 321, (3S,10R,13S)-6-fluoro-17-(5-fluoropyridin-3-yl)-10,13-dimethyl-2,3,4,5,6,7,8,9,10,11,12,13,14,15-tetradecahydro-1H-cyclopenta[a]phenanthrene-3,5-diol] | < 11 | 1 to 50 | > 50 | < 15 | – | – | – | – | – | –
12 | C[C@]12CCC(=O)C=C1C1CC1[C@@H]1[C@@H]2CC[C@]2(C)C(c3cncc(F)c3)=CC[C@@H]12 (stereo partly drawn) [Compound 330, (4aR,6aS)-7-(5-fluoropyridin-3-yl)-4a,6a-dimethyl-4,4a,4b,5,6,6a,9,9a,9b,9c,10,10a-dodecahydrocyclopenta[a]cyclopropa[l]phenanthren-2(3H)-one] | < 11 | 1 to 50 | > 50 | < 15 | – | – | – | – | – | –
13 | C[C@]12CCNC(=O)C=C1CCC1C2CC[C@]2(C)C(c3cncc(C(F)F)c3)=CCC12 (stereo partly drawn) [Compound 386, (5aR,7aS)-8-(5-(difluoromethyl)pyridin-3-yl)-5a,7a-dimethyl-3,4,5,5a,5b,6,7,7a,10,10a,11,12-dodecahydrocyclopenta[5,6]naphtho[1,2-d]azepin-2(10bH)-one] | < 11 | 1 to 50 | > 50 | < 15 | – | – | – | – | – | –
14 | C[C@]12CC(O)CC1CCC1C2CC[C@]2(C)C(c3cncc(F)c3)=CCC12 (stereo partly drawn) [Compound 398, (3aS,5aS)-6-(5-fluoropyridin-3-yl)-3a,5a-dimethyl-1,2,3,3a,3b,4,5,5a,8,8a,8b,9,10,10a-tetradecahydrodicyclopenta[a,f]naphthalen-2-ol] | < 11 | > 50 | 10 to 50 | < 15 | – | – | – | – | – | –
15 | C[C@]12CC(O)CC1CCC1C2CC[C@]2(C)C(c3cccnc3)=CCC12 (stereo partly drawn) [Compound 399, (3aS,5aS)-3a,5a-dimethyl-6-(pyridin-3-yl)-1,2,3,3a,3b,4,5,5a,8,8a,8b,9,10,10a-tetradecahydrodicyclopenta[a,f]naphthalen-2-ol] | < 11 | 1 to 50 | > 50 | < 15 | – | – | – | – | – | –
16 | C[C@]12CCC(F)CC1=CC[C@@H]1[C@@H]2CC[C@]2(C)C(c3cncc(F)c3)=CC[C@@H]12 (stereo partly drawn) [Compound 401, 3-fluoro-5-((10R,13S)-3-fluoro-10,13-dimethyl-2,3,4,7,8,9,10,11,12,13,14,15-dodecahydro-1H-cyclopenta[a]phenanthren-17-yl)pyridine] | < 11 | > 50 | – | < 15 | – | – | – | – | – | –
